Data as given in US8912216B2, “Hetaryl-[1,8]naphthyridine derivatives” (Merck Patent GmbH, priority 2010, dated 2014).

Key:
GST-ALK5 = target: T1, GST-ALK5 (Homo sapiens, UniProt P36897); assay: In-vitro (enzyme) kinase assay, 384-well flashplate (Example 36); type: biochemical; details: GST-ALK5, GST-SMAD2 substrate, 3 mM ATP, 30° C., 45 min; read-out: TβR activity (Example 36)
T1 sequence (P36897 34-503): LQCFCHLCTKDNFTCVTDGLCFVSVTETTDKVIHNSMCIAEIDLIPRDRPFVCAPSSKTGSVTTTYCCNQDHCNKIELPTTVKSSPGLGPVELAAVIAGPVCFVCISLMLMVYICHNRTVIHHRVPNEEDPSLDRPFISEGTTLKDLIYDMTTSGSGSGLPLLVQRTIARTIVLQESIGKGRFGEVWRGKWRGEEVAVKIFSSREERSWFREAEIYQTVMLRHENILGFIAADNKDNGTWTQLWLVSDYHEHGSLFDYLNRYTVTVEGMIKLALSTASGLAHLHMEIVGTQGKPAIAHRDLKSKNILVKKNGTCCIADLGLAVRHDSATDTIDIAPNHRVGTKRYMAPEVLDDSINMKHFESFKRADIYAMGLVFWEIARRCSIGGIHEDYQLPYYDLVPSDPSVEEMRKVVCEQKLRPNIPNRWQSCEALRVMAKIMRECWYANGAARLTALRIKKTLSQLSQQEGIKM
Procedure, shortened: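 Radiometric flashplate assay: 31.2 nM GST-ALK5 phosphorylating 439 nM GST-SMAD2 with 3 mM ATP plus ³³P-ATP, in HEPES/MgCl2/MnCl2/DTT/BSA buffer pH 7.4, 45 min at 30 °C, 5-10 compound concentrations. EDTA stop, filtration and washing, then radioactivity counted; IC50 derived from the curve.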

[1] = test system: TGF-beta-induced phosphorylation of Smad2 and Smad3 in Mv1-Lu cells; assay: Inhibition of Smad2/3 phosphorylation in Mv1Lu cells (Example 35A); type: cell-based, mink Mustela vison; details: Neogale vison, Mv1-Lu cells, TGF-beta 1 5 ng/ml, phospho-Smad2/3 ELISA, read-out: TβR activity (Example 35A)
Procedure, shortened: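 Serum-starved (16-20 h) Mv1-Lu mink lung epithelial cells were pre-incubated 1.5 h with compound dilutions (0.2% DMSO), then stimulated 1 h with 5 ng/ml TGF-beta 1. Phospho-Smad2 (Ser465/467)/Smad3 (Ser423/425) in lysates was measured by ELISA. IC50 came from dose-response fits between stimulated and unstimulated controls.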

Structure (SMILES)	IC50 (GST-ALK5)	IC50 [1]
CN1CCN(c2ccc(-c3cncc(-c4cc(-c5ccccc5F)nc5ncccc45)n3)cn2)CC1 [compound 82, 2-(2-Fluoro-phenyl)-4-{6-[6-(4-methyl-piperazin-1-yl)-pyridin-3-yl]-pyrazin-2-yl}-[1,8]naphthyridine]	< 100 nM	100 to 1000 nM
OCCn1cc(-c2cncc(-c3cc(-c4ccccc4F)nc4ncccc34)n2)cn1 [compound 83, 2-(4-{6-[2-(2-Fluoro-phenyl)-[1,8]naphthyridin-4-yl]-pyrazin-2-yl}-pyrazol-1-yl)-ethanol]	< 100 nM	1000 to 10000 nM
OC/C=C/Cn1cc(-c2cncc(-c3cc(-c4ccccc4F)nc4ncccc34)c2)cn1 [compound 84]	< 100 nM	100 to 1000 nM
CN1CCC(n2cc(-c3cncc(-c4cc(-c5ccccc5F)nc5ncccc45)n3)cn2)CC1 [compound 85, 2-(2-Fluoro-phenyl)-4-{6-[1-(1-methyl-piperidin-4-yl)-1H-pyrazol-4-yl]-pyrazin-2-yl}-[1,8]naphthyridine]	< 100 nM	100 to 1000 nM
CN1CCN(CCCn2cc(-c3cncc(-c4cc(-c5ccccc5F)nc5ncccc45)c3)cn2)CC1 [compound 86, 2-(2-Fluoro-phenyl)-4-(5-{1-[3-(4-methyl-piperazin-1-yl)-propyl]-1H-pyrazol-4-yl}-pyridin-3-yl)-[1,8]naphthyridine]	< 100 nM	100 to 1000 nM
Fc1ccccc1-c1cc(-c2cncc(-c3cnn(CCCN4CCOCC4)c3)c2)c2cccnc2n1 [compound 87, 2-(2-Fluoro-phenyl)-4-{5-[1-(3-morpholin-4-yl-propyl)-1H-pyrazol-4-yl]-pyridin-3-yl}-[1,8]naphthyridine]	< 100 nM	100 to 1000 nM
OCC(O)Cn1cc(-c2cncc(-c3cc(-c4cc(F)ccc4F)nc4ncccc34)c2)cn1 (centres unmarked) [compound 88, 3-(4-{5-[2-(2,5-Difluoro-phenyl)-[1,8]naphthyridin-4-yl]-pyridin-3-yl}-pyrazol-1-yl)-propane-1,2-diol]	< 100 nM	1000 to 10000 nM
OCCCn1cc(-c2cncc(-c3cc(-c4cc(F)ccc4F)nc4ncccc34)c2)cn1 [compound 89, 3-(4-{5-[2-(2,5-Difluoro-phenyl)-[1,8]naphthyridin-4-yl]-pyridin-3-yl}-pyrazol-1-yl)-propan-1-ol]	< 100 nM	100 to 1000 nM
OCCn1cc(-c2cncc(-c3cc(-c4cc(Cl)ccc4F)nc4ncccc34)c2)cn1 [compound 91, 2-(4-{5-[2-(5-Chloro-2-fluoro-phenyl)-[1,8]naphthyridin-4-yl]-pyridin-3-yl}-pyrazol-1-yl)-ethanol]	< 100 nM	< 100 nM
CN1CCN(c2ccc(-c3cncc(-c4cc(-c5cc(Cl)ccc5F)nc5ncccc45)c3)cc2)CC1 [compound 92, 2-(5-Chloro-2-fluoro-phenyl)-4-{5-[4-(4-methyl-piperazin-1-yl)-phenyl]-pyridin-3-yl}-[1,8]naphthyridine]	< 100 nM	< 100 nM
CN1CCN(c2ccc(-c3cncc(-c4cc(-c5cc(Cl)ccc5F)nc5ncccc45)c3)cn2)CC1 [compound 93, 2-(5-Chloro-2-fluoro-phenyl)-4-[6′-(4-methyl-piperazin-1-yl)-[3,3′]bipyridinyl-5-yl]-[1,8]naphthyridine]	< 100 nM	< 100 nM
Fc1ccc(Cl)cc1-c1cc(-c2cncc(-c3ccc(N4CCNCC4)cc3)c2)c2cccnc2n1 [compound 94, 2-(5-Chloro-2-fluoro-phenyl)-4-[5-(4-piperazin-1-yl-phenyl)-pyridin-3-yl]-[1,8]naphthyridine]	< 100 nM	< 100 nM
Fc1ccc(Cl)cc1-c1cc(-c2cncc(-c3ccc(N4CCNCC4)nc3)c2)c2cccnc2n1 [compound 95, 2-(5-Chloro-2-fluoro-phenyl)-4-(6′-piperazin-1-yl-[3,3′]bipyridinyl-5-yl)-[1,8]naphthyridine]	< 100 nM	100 to 1000 nM
